Source: patent publication US20070203194A1, “Ion channel modulators” (SCION PHARMACEUTICALS, INC., priority 2004, published 2007)
pIC50: −log10 of the molar value.

test system: calcium channel (e.g., L-type, N-type, etc.) current; assay: HEK assay (whole-cell patch clamp of calcium channel currents in transiently transfected HEK-293T/17 cells); format: cell-based; conditions: whole-cell voltage clamp, holding potential −100 mV
Protocol: HEK-293T/17 cells are transiently transfected in a similar manner as described in FuGENE 6 Package Insert Version 7, April 2002, Roche Applied Science, Indianapolis, Ind. The cells are plated at 2.5×10^5 cells in 2 mL in a 6-well plate in incubator for one night and achieve a 30-40% confluence. In a small sterile tube, add sufficient serum-free medium as diluent for FuGENE Transfection Reagent (Roche Applied Science, Indianapolis, Ind.), to a total volume of 100 μL. Add 3 μL of FuGENE 6 Reagent directly into this medium. The mixture is tapped gently to mix. 2 μg of DNA solution (0.8-2.0 μg/μL) is added to the prediluted FuGENE 6 Reagent from above. The DNA/Fugene 6 mixture is gently pipetted to mix the contents and incubated for about 15 minutes at room temperature. The complex mixture is then added to the HEK-293T/17 cells, distributing it around the well, and swirled to ensure even dispersal. The cells are returned to the incubator for 24 hrs. The transfected cells are then replated at density 2.5×10^5 in a 35 mm dish with 5 glass coverslips and grow in low serum (1%) media for 24 hrs. Coverslips with isolated cells are then transferred into chamber and calcium channel (e.g., L-type, N-type, etc.) current or other currents for counter screening are recorded from the transiently transfected HEK-293T/17 cells.
The whole-cell voltage clamp configuration of the patch clamp technique is employed to evaluate voltage-dependent calcium currents essentially as described by Thompson and Wong (1991) J. Physiol., 439: 671-689. To record calcium channel (e.g., L-type, N-type, etc.) currents for evaluation of inhibitory potency of compounds (steady-state concentration-response analysis), five pulses of 20-30 ms voltage steps to about +10 mV (the peak of the current voltage relationship) are delivered at five Hz every 30 second from a holding potential at −100 mV. Compound evaluations were carried out essentially as described by Sah D W and Bean B P (1994) Mol Pharmacol. 45(1):84-92. Table 3 contains IC50's for representative compounds.

In order of falling pIC50:
1. COc1ccc(C(=O)CSc2nnc(CNc3ccc(F)cc3)n2-c2ccc(C)cc2)cc1 [Compound 5]  6.42
2. COc1ccc(C(=O)CSc2nnc(-c3ccccc3OC)n2-c2ccc(C)cc2)cc1 [Compound 28]  6.24
3. COc1ccccc1-c1nnc(SCC(=O)Nc2ccccn2)n1-c1ccc(C)cc1 [Compound 27]  6.16
